Data from publication PMC8405091, “Microwave-assisted Phospha-Michael addition reactions in the 13α-oestrone series and in vitro antiproliferative properties” (Journal of Enzyme Inhibition and Medicinal Chemistry, 2021).
Like-named read-outs stand apart in the source and are kept apart here.

Legend:
C33-A cells = assay: MTT antiproliferative assay, C33-A; assay type: cell-based, human; conditions: Homo sapiens, C-33-A, 72 h; for IC50: read-out: calculated IC50 value
Experimental: (§1) The antiproliferative properties of the newly synthesized compounds (9–20) and their starting materials (4 and 5) were determined on a panel of human adherent cancer cell lines. MCF-7, MDA-MB-231 and T47D were isolated from breast cancers differing in biochemical background, while A2780 cells were isolated from ovarian cancer. HeLa and SiHa are cervical cancer cell lines positive for HPV-18 and HPV-16, respectively, while C33-A cervical cancer cells are negative for HPV. Moreover, two oropharyngeal cancer cell lines were also utilized: the HPV-negative UPCI-SCC-131 and HPV-16 positive UPCI-SCC-154. The cancer selectivity of compounds was tested on the non-cancerous mouse embryo fibroblast cell line NIH/3T3. All cell lines were purchased from European Collection of Cell Cultures (ECCAC, Salisbury, UK) exception for SiHa and C33-A (American Tissue Culture Collection, Manassas, VA, USA) and HN-SCC-131 and UPCI-SCC-154 (German Collection of Microorganisms and Cell Cultures GmbH, Braunschweig, Germany). Cells were cultivated in minimal essential medium supplemented with 10% fetal bovine serum, 1% non-essential amino acids and an antibiotic–antimycotic mixture. The medium of oropharyngeal cancer cells additionally contained 2.0 mM L-glutamine. All media and supplements were obtained from Lonza Group Ltd., Basel, Switzerland. Near-confluent cancer cells were seeded onto a 96-well microplate at a density of 5,000 cells/well, except for C33-A which were seeded at 10,000/well. After overnight standing, new medium containing the tested compounds at 10 and 30 µM final concentration was added. After incubation for 72 h at 37 °C in humidified air containing 5% CO2, the living cells were assayed by the addition of 20 μL of 5 mg/ml 3-(4,5-dimethylthiazol-2-yl)-2,5-diphenyltetrazolium bromide (MTT) solution. MTT was converted by intact mitochondrial reductase and precipitated as purple crystals during a 4-h contact period. The medium was next removed and the precipitated formazan crystals were dissolved in 100 μL of DMSO during a 60-min period of shaking at 37 ^оC.
(§2) All in vitro experiments were carried out twice with five parallels. Stock solutions of the tested substances (10 mM) were prepared in DMSO. […] Cisplatin (Ebewe Pharma GmbH, Unterach, Austria) was used as positive control.

T47D cells = assay: MTT antiproliferative assay, T47D; assay type: cell-based, human; conditions: Homo sapiens, 72 h; for IC50: read-out: calculated IC50 value
Experimental: as §1, §2

[1] = test system: non-cancerous mouse embryo fibroblast (NIH/3T3) cells; assay: MTT assay on non-cancerous fibroblasts (tumour selectivity); assay type: cell-based; conditions: for inhibition at 10 µM / inhibition at 30 µM / IC50: Mus musculus; for inhibition at 10 µM / inhibition at 30 µM: read-out: Growth inhibition, % ± SEM; for IC50: read-out: calculated IC50 value
Experimental: as §1, §2

MCF-7 cells = assay: MTT antiproliferative assay, MCF-7; assay type: cell-based, human; conditions: Homo sapiens; for inhibition at 10 µM: MCF-7, 10 μM; for inhibition at 10 µM / inhibition at 30 µM: 72 h, read-out: Growth inhibition, % ± SEM; for inhibition at 30 µM: MCF-7, 30 μM; for IC50: read-out: calculated IC50 value
Experimental: as §1, §2

UPCI-SCC-131 cells = assay: MTT antiproliferative assay, UPCI-SCC-131; assay type: cell-based, human; conditions: Homo sapiens; for inhibition at 10 µM: UPCI-SCC-131, 10 μM; for inhibition at 10 µM / inhibition at 30 µM: read-out: Growth inhibition, % ± SEM; for inhibition at 30 µM: UPCI-SCC-131, 30 μM; for IC50: read-out: calculated IC50 value
Experimental: as §1, §2

A2780 cells = assay: MTT antiproliferative assay, A2780; assay type: cell-based, human
Experimental: as §1, §2

MDA-MB-231 cells = assay: MTT antiproliferative assay, MDA-MB-231; assay type: cell-based, human
Experimental: as §1, §2

UPCI-SCC-154 cells = assay: MTT antiproliferative assay, UPCI-SCC-154; assay type: cell-based, human; conditions: Homo sapiens; for inhibition at 10 µM: UPCI-SCC-154, 10 μM; for inhibition at 10 µM / inhibition at 30 µM: read-out: Growth inhibition, % ± SEM; for inhibition at 30 µM: UPCI-SCC-154, 30 μM; for IC50: read-out: calculated IC50 value
Experimental: as §1, §2

SiHa cells = assay: MTT antiproliferative assay, SiHa; assay type: cell-based, human; conditions: Homo sapiens, 72 h; for IC50: read-out: calculated IC50 value
Experimental: as §1, §2

HeLa cells = assay: MTT antiproliferative assay, HeLa; assay type: cell-based, human; conditions: Homo sapiens, 72 h; for IC50: read-out: calculated IC50 value
Experimental: as §1, §2

[2] = C33-A, 10 μM, read-out: Growth inhibition, % ± SEM
[3] = C33-A, 30 μM, read-out: Growth inhibition, % ± SEM
[4] = 10 μM, read-out: Growth inhibition, % ± SEM
[5] = 30 μM, read-out: Growth inhibition, % ± SEM
[6] = Homo sapiens, A2780, 72 h; read-out: calculated IC50 value
[7] = Homo sapiens; A2780, 10 μM, 72 h; read-out: Growth inhibition; % ± SEM
[8] = Homo sapiens; A2780, 30 μM, 72 h; read-out: Growth inhibition; % ± SEM
[9] = Homo sapiens, MDA-MB-231, 72 h; read-out: calculated IC50 value
[10] = Homo sapiens; MDA-MB-231, 10 μM, 72 h; read-out: Growth inhibition; % ± SEM
[11] = Homo sapiens; MDA-MB-231, 30 μM, 72 h; read-out: Growth inhibition; % ± SEM
[12] = read-out: Growth inhibition, % ± SEM, 10 μM
[13] = read-out: Growth inhibition, % ± SEM, 30 μM
[14] = Homo sapiens, MDA-MB-231, 72 h, read-out: Growth inhibition; % ± SEM

C=C1C[C@H]2[C@@H]3CCc4cc(OC)ccc4[C@H]3CC[C@@]2(C)C1=O [Compound 4, 3-methoxy-16-methylene derivative]
inhibition at 10 µM (C33-A cells; [2]): 99.57 ± 0.61%
inhibition at 30 µM (C33-A cells; [3]): 99.55 ± 0.39%
IC50 (C33-A cells; C33-A): 3.6 µM
inhibition at 10 µM (T47D cells; [4]): 99.68 ± 0.74%
inhibition at 30 µM (T47D cells; [5]): 99.92 ± 0.71%
IC50 (T47D cells): 3.46 µM
inhibition at 10 µM ([1]; NIH3T3, NIH/3T3, 10 μM, 72 h): 101.1 ± 0.67%
inhibition at 30 µM ([1]; NIH3T3, NIH/3T3, 30 μM, 72 h): 100.9 ± 0.71%
IC50 ([1]; NIH3T3, NIH/3T3, 72 h): 2.79 µM
inhibition at 10 µM (MCF-7 cells; MCF7): 99.52 ± 0.51%
inhibition at 30 µM (MCF-7 cells; MCF7): 99.83 ± 0.44%
IC50 (MCF-7 cells; MCF7, MCF-7, 72 h): 3.7 µM
inhibition at 10 µM (UPCI-SCC-131 cells; 72 h): 99.8 ± 0.36%
inhibition at 30 µM (UPCI-SCC-131 cells; 72 h): 99.88 ± 0.39%
IC50 (UPCI-SCC-131 cells; UPCI-SCC-131, 72 h): 3.17 µM
IC50 (A2780 cells; [6]): 6.24 µM
inhibition at 10 µM (A2780 cells; [7]): 96.9 ± 1.52%
inhibition at 30 µM (A2780 cells; [8]): 100.5 ± 0.22%
IC50 (MDA-MB-231 cells; [9]): 3.97 µM
inhibition at 10 µM (MDA-MB-231 cells; [10]): 99.97 ± 0.71%
inhibition at 30 µM (MDA-MB-231 cells; [11]): 94.6 ± 2.26%
inhibition at 10 µM (UPCI-SCC-154 cells; 72 h): 97.3 ± 1.1%
inhibition at 30 µM (UPCI-SCC-154 cells; 72 h): 97.81 ± 0.65%
IC50 (UPCI-SCC-154 cells; UPCI-SCC-154, 72 h): 5.15 µM
inhibition at 10 µM (SiHa cells; [4]): 97.44 ± 0.54%
inhibition at 30 µM (SiHa cells; [5]): 99.28 ± 0.42%
IC50 (SiHa cells): 3.31 µM
inhibition at 10 µM (HeLa cells; [4]): 85.1 ± 2.44%
inhibition at 30 µM (HeLa cells; [5]): 99.43 ± 0.28%
IC50 (HeLa cells): 4.45 µM

C=C1C[C@H]2[C@@H]3CCc4cc(OCc5ccccc5)ccc4[C@H]3CC[C@@]2(C)C1=O [Compound 5]
inhibition at 10 µM (C33-A cells; [2]): 93.9 ± 2.56%
inhibition at 30 µM (C33-A cells; [3]): 100 ± 0.23%
IC50 (C33-A cells; C33-A): 3.75 µM
inhibition at 10 µM (T47D cells; [4]): 100.2 ± 0.28%
inhibition at 30 µM (T47D cells; [5]): 101.3 ± 0.47%
IC50 (T47D cells): 3.47 µM
inhibition at 10 µM ([1]; NIH3T3, NIH/3T3, 10 μM, 72 h): 100.8 ± 0.16%
inhibition at 30 µM ([1]; NIH3T3, NIH/3T3, 30 μM, 72 h): 100.3 ± 0.25%
IC50 ([1]; NIH3T3, NIH/3T3, 72 h): 2.74 µM
inhibition at 10 µM (MCF-7 cells; MCF7): 99.7 ± 0.43%
inhibition at 30 µM (MCF-7 cells; MCF7): 100.6 ± 0.31%
IC50 (MCF-7 cells; MCF7, MCF-7, 72 h): 3.35 µM
inhibition at 10 µM (UPCI-SCC-131 cells; 72 h): 99.54 ± 0.33%
inhibition at 30 µM (UPCI-SCC-131 cells; 72 h): 99.94 ± 0.44%
IC50 (UPCI-SCC-131 cells; UPCI-SCC-131, 72 h): 2.38 µM
IC50 (A2780 cells; [6]): 6.7 µM
inhibition at 10 µM (A2780 cells; [7]): 94.8 ± 2.13%
inhibition at 30 µM (A2780 cells; [8]): 100.9 ± 0.18%
IC50 (MDA-MB-231 cells; [9]): 4.07 µM
inhibition at 10 µM (MDA-MB-231 cells; [10]): 97.2 ± 1.46%
inhibition at 30 µM (MDA-MB-231 cells; [11]): 98.57 ± 0.89%
inhibition at 10 µM (UPCI-SCC-154 cells; 72 h): 96.4 ± 0.89%
inhibition at 30 µM (UPCI-SCC-154 cells; 72 h): 100.3 ± 0.82%
IC50 (UPCI-SCC-154 cells; UPCI-SCC-154, 72 h): 4.5 µM
inhibition at 10 µM (SiHa cells; [4]): 98.98 ± 0.26%
inhibition at 30 µM (SiHa cells; [5]): 99.97 ± 0.42%
IC50 (SiHa cells): 2.3 µM
inhibition at 10 µM (HeLa cells; [4]): 75.1 ± 3.73%
inhibition at 30 µM (HeLa cells; [5]): 99.65 ± 0.25%
IC50 (HeLa cells): 6.99 µM

COc1ccc2c(c1)CC[C@@H]1[C@@H]2CC[C@@]2(C)C(=O)[C@H](CP(=O)(c3ccccc3)c3ccccc3)C[C@@H]12 [Compound 9, [(3-methoxy-17-oxo-13α-oestra-1,3,5(10)-trien-16α-yl)methyl]diphenylphosphine oxide]
inhibition at 10 µM (C33-A cells; read-out: Growth inhibition, % ± SEM, C33-A, 10 μM): < 20%
inhibition at 30 µM (C33-A cells; read-out: Growth inhibition, % ± SEM, C33-A, 30 μM): 97.85 ± 0.32%
IC50 (C33-A cells): 13.3 µM
inhibition at 10 µM (T47D cells; [12]): 57.5 ± 3.15%
inhibition at 30 µM (T47D cells; [13]): 93.77 ± 0.55%
IC50 (T47D cells): 7.2 µM
inhibition at 10 µM ([1]; NIH3T3, 72 h): < 20%
inhibition at 30 µM ([1]; NIH3T3, 72 h): 96.55 ± 0.86%
IC50 ([1]; NIH3T3, 72 h): 20.4 µM
Tumour selectivity: IC50 on NIH/3T3 relative to IC50 on UPCI-SCC-131 ([1]; NIH/3T3 vs UPCI-SCC-131): four times higher
inhibition at 10 µM (MCF-7 cells; MCF7, 72 h): 21.3 ± 2.79%
inhibition at 30 µM (MCF-7 cells; MCF7, 72 h): 93.1 ± 1.6%
IC50 (MCF-7 cells; MCF7, 72 h): 13.7 µM
inhibition at 10 µM (UPCI-SCC-131 cells; 72 h, 72 h): 63.4 ± 1.41%
inhibition at 30 µM (UPCI-SCC-131 cells; 72 h, 72 h): 99.35 ± 0.27%
IC50 (UPCI-SCC-131 cells; 72 h): 5.3 µM
inhibition at 10 µM (A2780 cells; Homo sapiens, A2780, 72 h, read-out: Growth inhibition; % ± SEM, A2780, 10 μM, 72 h): 47.2 ± 2.75%
inhibition at 30 µM (A2780 cells; Homo sapiens, A2780, 72 h, read-out: Growth inhibition; % ± SEM, A2780, 30 μM, 72 h): 98.99 ± 0.41%
IC50 (A2780 cells; Homo sapiens, A2780, 72 h, read-out: calculated IC50 value): 11.7 µM
inhibition at 10 µM (MDA-MB-231 cells; [14]): < 20%
inhibition at 30 µM (MDA-MB-231 cells; [14]): 99.03 ± 0.73%
IC50 (MDA-MB-231 cells; Homo sapiens, MDA-MB-231, 72 h, read-out: calculated IC50 value): 23.5 µM
inhibition at 10 µM (UPCI-SCC-154 cells; 72 h, 72 h): < 20%
inhibition at 30 µM (UPCI-SCC-154 cells; 72 h, 72 h): 99.8 ± 1.48%
IC50 (UPCI-SCC-154 cells; 72 h): 13.5 µM
inhibition at 10 µM (SiHa cells; [12]): < 20%
inhibition at 30 µM (SiHa cells; [13]): 96.5 ± 1.24%
IC50 (SiHa cells): 13.8 µM
inhibition at 10 µM (HeLa cells; [12]): < 20%
inhibition at 30 µM (HeLa cells; [13]): 97.59 ± 0.73%
IC50 (HeLa cells): 12.9 µM
